Test results from patent US12391679B2, “Benzamide-substituted bicyclic imidazo- and pyrazolo-fused -pyridine, -pyrimide, and -pyridazine compounds for treatment of inflammatory diseases” (ONCO3R Therapeutics BV, priority 2019, dated 2025).
Read-outs that look alike come from different tables or passages of the source.

Columns and labels:
[1] = target: T1, SIK3 (Homo sapiens, UniProt Q9Y2K2); assay: ADP-Glo kinase assay, SIK3; type: biochemical
T1 construct: purchased SignalChem S12-11G-100
How it was run: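 Luminescent ADP-Glo readout of ADP formed. Enzyme-substrate mix with ATP, reaction 120 min at RT, then 40 min ATP depletion and 30 min detection. Controls were 1% DMSO (negative) and 10 μM staurosporine (positive), both final.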

[2] = test system: LPS-induced TNFα in monocyte-derived macrophages; assay: MdM assay: LPS-triggered TNFα (ELISA); type: cell-based, human
Description: This assay evaluates illustrative compounds of the invention for their inhibition of LPS-induced TNFα and LPS triggered IL-10 secretion in monocyte-derived macrophages. PBMCs are isolated from human blood samples (buffycoats). The buffy coat is aseptically transferred into a 50 mL Falcon tube, and diluted 1/2 in PBS. Falcon tubes are filled with 20 mL LymphoprepTM, on top of which 25 mL of the buffy coat is carefully added, tubes are centrifuged for 35 min at 400 g in temperature controlled centrifuge, without brake, at 25° C. PBMCs are aspirated from the white interface layer between sample and LymphoprepTM. PBMCs are washed five times in PBS. […] PBMCs are centrifuged at 300×g for 10 min and resuspended at a density of 1.0*10^7 cells/80 μL Miltenyi buffer (PBS, pH 7.4, 1% FBS, 2 mM EDTA). Starting from this point of the protocol all steps are performed on ice. 20 μL of CD14+ micro-beads are added per 1.0*10^7 cells, the tube is mixed and incubated for 15 min in the fridge at 4° C. Cell suspension volume is adjusted to total volume of 100 mL using Miltenyi buffer, mixed gently and subsequently centrifuged for 10 min at 300×g. Supernatant is discarded and cell pellet is resuspended in 12 mL of Miltenyi buffer. Four LS columns are placed in the MACS Separator (magnet) from Miltenyi Biotec, and are prewet by rinsing with 3 mL of MACS buffer per column. Three mL of cell suspension is added onto the column (max 1*10^8 of labelled cells/column), and columns are subsequently washed 3 times with 3 mL of Miltenyi buffer. The columns are removed from the magnets, and 5 mL of Miltenyi buffer are added to the column to flush out the CD14+ fraction by pushing the plunger into the column. The flushed fractions are collected in a fresh 50 mL Falcon and volume is adjusted to 30 mL using Miltenyi buffer, cells are centrifuged for 10 min at 300×g. The obtained cell pellet is resuspended in 10 mL RPMI w/o FBS, and cell density is determined using a hematologic analyser (Sysmex XS-500i). […] On day 10, MdMs are triggered and compound is added. A compound dilution plate is made in 100% DMSO by 3-fold dilution of 10 mM stock solution. An intermediate dilution plate (10× final concentration) is made by diluting the compound dilution plate […] in RPMI medium. Medium is carefully removed from cell plates using multichannel pipette, and replaced by 80 μL fresh medium. 10 μL of the 10× final concentration compound is added to the cells and incubated for 1 hour at 37° C. before addition of trigger. No trigger conditions/trigger conditions are spiked with equal final DMSO concentrations of 0.2% DMSO. 10 μL of 10×LPS (final conc. 200 ng/mL) solution are added to all wells except for the 'no trigger wells' where 10 μL medium is added. Supernatant is collected after 2 h (IL-10 determination) and after 20 h (TNFα determination) of LPS triggering. […] The plate is then washed once with PBST (PBS+0.05% Tween20) and once with PBS followed by the addition of 100 μL of blocking buffer (1% Bovine Serum Albumin (BSA) -5% Sucrose) and plates are sealed and incubated for at least 4 h at RT. After washing the plate once with PBST and once with PBS, 40 μL of standard or sample are added (TNFα standard curve is prepared using a 1/2 serial dilution starting from 16000 pg/mL; dilutions are made in dilution buffer (PBS+1% BSA)). Plates are washed twice with PBST, and once with PBS, after which 35 μL of the detection antibody is added (final concentration 0.25 μg/mL diluted in dilution buffer) and plates are incubated for at least 2 h at RT. Plates are washed twice with PBST, and once with PBS, where after 35 μL of Strep-HRP conjugate (0.5 μg/mL final concentration diluted in dilution buffer) is added. […] Plates are washed twice with PBST, and once with PBS. Thereafter, 50 μL of luminol substrate is added to each well (prepared according to manufacturer's instructions), and incubated for 5 min at RT protected from light.

[3] = Macrophage, human MdM, LPS 200 ng/mL, supernatant after 20 h, inhibition of TNFα, read-out: TNFα EC50
[4] = ADP-Glo, AMARA 45 μM, 5 μM ATP, 120 min, average IC50
[5] = human MdM, LPS 200 ng/mL, supernatant after 20 h, inhibition of TNFα, read-out: TNFα EC50
[6] = Homo sapiens, Macrophage, 20 h, read-out: TNFα EC50 (nM)

T1 sequence (Q9Y2K2 59-365 limits assumed): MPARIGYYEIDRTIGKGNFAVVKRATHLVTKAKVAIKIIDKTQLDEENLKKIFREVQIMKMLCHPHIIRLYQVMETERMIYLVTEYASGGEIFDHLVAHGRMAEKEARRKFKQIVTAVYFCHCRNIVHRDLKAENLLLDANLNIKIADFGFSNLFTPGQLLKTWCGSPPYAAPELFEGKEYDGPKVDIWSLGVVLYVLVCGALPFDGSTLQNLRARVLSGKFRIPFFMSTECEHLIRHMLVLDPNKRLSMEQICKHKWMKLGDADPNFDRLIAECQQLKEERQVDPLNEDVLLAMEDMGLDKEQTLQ

Compound	IC50 [1] [nM]	EC50 [2, 3] [nM]	other results
COc1cc(-c2cnc3cc([C@@](C)(O)C4CC4)ccn23)cc(OC(F)F)c1C(=O)NC1CC1 (single isomer, unassigned) [Cpd 163, N-cyclopropyl-4-[7-(1-cyclopropyl-1-hydroxy-ethyl)imidazo[1,2-a]pyridin-3-yl]-2-(difluoromethoxy)-6-methoxy-benzamide]	–	–	IC50 [1, 4]: 10 to 100 nM; EC50 [2, 5]: 100 to 1000 nM
CC[C@](C)(O)c1ccn2c(-c3cc(OC)c(C(=O)NC4CC4)c(OC(F)F)c3)cnc2c1 (single isomer, unassigned) [Cpd 165, N-cyclopropyl-2-(difluoromethoxy)-4-[7-(1-hydroxy-1-methyl-propyl)imidazo[1,2-a]pyridin-3-yl]-6-methoxy-benzamide]	–	–	IC50 [1, 4]: 10 to 100 nM; EC50 [2, 5]: 100 to 1000 nM
COc1cc(-c2cnc3cc([C@@](C)(C#N)CO)ccn23)cc(OC(F)F)c1C(=O)NC1CC1 (single isomer, unassigned) [Cpd 190, 4-[7-(1-cyano-2-hydroxy-1-methyl-ethyl)imidazo[1,2-a]pyridin-3-yl]-N-cyclopropyl-2-(difluoromethoxy)-6-methoxy-benzamide]	–	–	IC50 [1, 4]: 10 to 100 nM; EC50 [2, 5]: 1000 to 5000 nM
COc1cc(-c2cnn3cc(C(C)(C)C#N)ccc23)cc(OC(F)F)c1C(=O)N[C@@H]1C[C@H]1F (single isomer, unassigned) [Cpd 257, 4-[6-(1-cyano-1-methyl-ethyl)pyrazolo[1,5-a]pyridin-3-yl]-2-(difluoromethoxy)-N-(2-fluorocyclopropyl)-6-methoxy-benzamide]	–	–	EC50 [2, 6]: 100 to 1000 nM
COc1cc(-c2cnn3cc(C(C)(C)C#N)ccc23)cc(OC(F)F)c1C(=O)N[C@@H]1C[C@H]1F (single isomer, unassigned) [Cpd 258, 4-[6-(1-cyano-1-methyl-ethyl)pyrazolo[1,5-a]pyridin-3-yl]-2-(difluoromethoxy)-N-(2-fluorocyclopropyl)-6-methoxy-benzamide]	–	–	EC50 ([2]; read-out: TNFα EC50, human MdM, LPS 200 ng/mL, supernatant after 20 h, inhibition of TNFα): 100 to 1000 nM
COc1cc(-c2cnc3cc(C(C)(C)C#N)ccn23)cc(OC(F)F)c1C(=O)NC1CC1 [Cpd 19, 4-[7-(1-cyano-1-methyl-ethyl)imidazo[1,2-a]pyridin-3-yl]-N-cyclopropyl-2-(difluoromethoxy)-6-methoxy-benzamide]	0.01 to 10	100 to 1000	–
COc1cc(-c2cnc3cc(C(C)(C)O)ccn23)cc(OC(F)F)c1C(=O)NC1CC1 [Cpd 35, N-cyclopropyl-2-(difluoromethoxy)-4-[7-(1-hydroxy-1-methyl-ethyl)imidazo[1,2-a]pyridin-3-yl]-6-methoxy-benzamide]	10 to 100	100 to 1000	–
COc1cc(-c2cnc3cc(C(C)(C)C#N)ccn23)cc(OC(F)F)c1C(=O)NCC1CC1 [Cpd 39, 4-[7-(1-cyano-1-methyl-ethyl)imidazo[1,2-a]pyridin-3-yl]-N-(cyclopropylmethyl)-2-(difluoromethoxy)-6-methoxy-benzamide]	0.01 to 10	100 to 1000	–
COc1cc(-c2cnc3cc(C4CN(C(C)=O)C4)ccn23)cc(OC(F)F)c1C(=O)NC1CC1 [Cpd 63, 4-[7-(1-acetylazetidin-3-yl)imidazo[1,2-a]pyridin-3-yl]-N-cyclopropyl-2-(difluoromethoxy)-6-methoxy-benzamide]	0.01 to 10	1000 to 5000	–
COc1cc(-c2cnc3cc(C(C)(C)C#N)ccn23)cc(OC(F)F)c1C(=O)N1CC(F)(F)C1 [Cpd 69, 2-[3-[4-(3,3-difluoroazetidine-1-carbonyl)-3-(difluoromethoxy)-5-methoxy-phenyl]imidazo[1,2-a]pyridin-7-yl]-2-methyl-propanenitrile]	0.01 to 10	100 to 1000	–
COc1cc(-c2cnn3cc(C(C)(C)C#N)ccc23)cc(OC(F)F)c1C(=O)N[C@@H]1C[C@@H]1F [Cpd 219, 4-[6-(1-cyano-1-methyl-ethyl)pyrazolo[1,5-a]pyridin-3-yl]-2-(difluoromethoxy)-N-[(1R,2S)-2-fluorocyclopropyl]-6-methoxy-benzamide]	–	–	EC50 [2, 6]: 100 to 1000 nM
[2H]C([2H])([2H])C(C#N)(c1ccc2c(-c3cc(OC)c(C(=O)N[C@@H]4C[C@@H]4F)c(OC(F)F)c3)cnn2c1)C([2H])([2H])[2H] [Cpd 275, 4-[6-[1-cyano-2,2,2-trideuterio-1-(trideuteriomethyl)ethyl]pyrazolo[1,5-a]pyridin-3-yl]-2-(difluoromethoxy)-N-[(1R,2S)-2-fluorocyclopropyl]-6-methoxy-benzamide]	–	–	EC50 [2, 6]: 100 to 1000 nM

Now from value to molecule, other results behind:

IC50 [1] [nM]	EC50 [2, 3] [nM]	Compound	other results
10 to 100	100 to 1000	COc1cc(-c2cnc3cc([C@@](C)(O)C4CC4)ccn23)cc(OC(F)F)c1C(=O)NC1CC1 (single isomer, unassigned) [Cpd 162, N-cyclopropyl-4-[7-(1-cyclopropyl-1-hydroxy-ethyl)imidazo[1,2-a]pyridin-3-yl]-2-(difluoromethoxy)-6-methoxy-benzamide]	–
10 to 100	100 to 1000	CC[C@](C)(O)c1ccn2c(-c3cc(OC)c(C(=O)NC4CC4)c(OC(F)F)c3)cnc2c1 (single isomer, unassigned) [Cpd 164, N-cyclopropyl-2-(difluoromethoxy)-4-[7-(1-hydroxy-1-methyl-propyl)imidazo[1,2-a]pyridin-3-yl]-6-methoxy-benzamide]	–
10 to 100	1000 to 5000	COc1cc(-c2cnc3cc([C@@](C)(C#N)CO)ccn23)cc(OC(F)F)c1C(=O)NC1CC1 (single isomer, unassigned) [Cpd 189, 4-[7-(1-cyano-2-hydroxy-1-methyl-ethyl)imidazo[1,2-a]pyridin-3-yl]-N-cyclopropyl-2-(difluoromethoxy)-6-methoxy-benzamide]	–
10 to 100	100 to 1000	CCC(C)(C#N)c1ccn2c(-c3cc(OC)c(C(=O)NC4CC4)c(OC(F)F)c3)cnc2c1 (stereo not shown) [Cpd 27, 4-[7-(1-cyano-1-methyl-propyl)imidazo[1,2-a]pyridin-3-yl]-N-cyclopropyl-2-(difluoromethoxy)-6-methoxy-benzamide]	–
10 to 100	100 to 1000	COc1cc(-c2cnc3cc(C(C)(C)C#N)ccn23)cc(OC)c1C(=O)NC1CC1 [Cpd 28, 4-[7-(1-cyano-1-methyl-ethyl)imidazo[1,2-a]pyridin-3-yl]-N-cyclopropyl-2,6-dimethoxy-benzamide]	–
0.01 to 10	100 to 1000	COc1cc(-c2cnc3cc(C4(C#N)CC4)ccn23)cc(OC(F)F)c1C(=O)NC1CC1 [Cpd 33, 4-[7-(1-cyanocyclopropyl)imidazo[1,2-a]pyridin-3-yl]-N-cyclopropyl-2-(difluoromethoxy)-6-methoxy-benzamide]	–
0.01 to 10	100 to 1000	COc1cc(-c2cnc3cc(C4CCCN(C(=O)OC(C)(C)C)C4)ccn23)cc(OC(F)F)c1C(=O)NC1CC1 (stereo not shown) [Cpd 64, tert-butyl 3-[3-[4-(cyclopropylcarbamoyl)-3-(difluoromethoxy)-5-methoxy-phenyl]imidazo[1,2-a]pyridin-7-yl]piperidine-1-carboxylate]	–
